“Also recorded” adds a separate entry of the source. Values belong to the molecule of their own block, whether it stands above or below them. Non-standard residues stand in square brackets, D forms with d. Residues, ends and D or L forms follow the SMILES beside them. pS = N[C@@H](COP(=O)(O)O)C(=O)O
Assays:
Format in all cases: biochemical
[1] = target: T1, PKC-θ KD (Homo sapiens, UniProt Q04759); assay: coupled PK/LDH assay: steady-state kinetics, product and dead-end inhibition of PKC-θ KD; conditions: for substrate inhibition: high peptide concentrations
T1 construct: PKC-θ KD (amino acid residues 362 to 706) was cloned into a pET16b expression vector; hexa-histidine (C); Met-Gly (non-native N-terminal residues) (N); made in house; host or cells: E. coli BL21-DE3 (pET16b)
T1 sequence (Q04759 with tags, fused parts or gaps): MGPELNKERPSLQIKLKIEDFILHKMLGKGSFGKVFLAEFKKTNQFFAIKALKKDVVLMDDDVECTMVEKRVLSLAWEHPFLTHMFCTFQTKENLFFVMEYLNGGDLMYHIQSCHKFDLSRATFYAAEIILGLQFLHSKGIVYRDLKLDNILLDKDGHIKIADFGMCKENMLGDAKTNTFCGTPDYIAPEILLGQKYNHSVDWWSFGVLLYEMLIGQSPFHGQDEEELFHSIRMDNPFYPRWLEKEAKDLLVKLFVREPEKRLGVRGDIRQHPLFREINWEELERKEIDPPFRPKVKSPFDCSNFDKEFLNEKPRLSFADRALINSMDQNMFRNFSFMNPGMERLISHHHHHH

[2] = target: T1, PKC-θ KD; assay: solvent viscosity studies (sucrose, Ficoll 400) on steady state kinetic parameters; conditions: from viscosity analysis
Protocol: Next, solvent viscosity studies were performed. Steady state kinetic parameters were determined in the buffer described above for the enzyme kinetics assays containing varied sucrose (0-35%) or Ficoll 400 (0-8%). Relative solvent viscosities (η^ref) were determined in triplicate relative to 25 mM HEPES pH 7.5, 10 mM MgCl2, 2 mM DTT and 100 mM NaCl at 25° C. using an Ostwald viscometer. Buffer with no viscogen is indicated with a superscript of 0. The coupling enzyme system was unaffected by the presence of these viscogens. Thio effect studies with ATPγS and product inhibition studies with ADP were analyzed on a Hewlett Packard series 1100 HPLC using a Phenomenex Auga […] C18 124 A^0 50 mm×4.60 […] column (00B-4299-E0). Phosphorylated peptide was separated from non-phosphorylated peptide using a gradient of 0% to 100% 20 mM phosphate pH 8.8/acetonitrile (50/50). The fluorescein-labeled peptide was detected by excitation at 485 nm and monitoring the fluorescence emission at 530 nm.
To determine if the chemical step is the lone contributor to the rate of the reaction, the effect of solvent viscosity on the steady state kinetic parameters for PKC-θ was determined. Two types of viscogens were employed in this study, the microviscogen sucrose and the macroviscogen Ficoll-400. […]

[3] = target: T1, PKC-θ KD; assay: HPLC assay: thio effect with ATPγS and product inhibition with ADP; conditions: for pattern / Ki: product inhibition; for appKm / rate: peptide1 used in assay
[4] = dead-end inhibition against peptide 1 at saturating ATP (AMP-PNP up to 2.0 mM)
[5] = dead-end inhibition, varied substrate ATP, 100 mM NaCl
[6] = varied substrate peptide3, saturating ATP, 100 mM NaCl, read-out: Kis
[7] = substrate inhibition, fit to equation (2), saturating ATP, read-out: Ki peptide
[8] = varied peptide substrate, saturating ATP

- inhibition pattern in words ([1]; against peptide 3 at saturating ATP): competitive inhibitor
- inhibition pattern in words ([1]; dead-end inhibition against ATP, listed as Peptide 5): uncompetitive inhibitor
- inhibition pattern in words ([1]; dead-end inhibition against ATP, listed as peptide 5): un-competitive
- inhibition pattern in words [1, 4]: competitive inhibitor
- pattern [1, 5]: uc (uc, uncompetitive)
- Ki ([1]; dead-end inhibition, varied substrate ATP, 100 mM NaCl, read-out: Kii): 1100 µM
- pattern ([1]; dead-end inhibition, varied substrate peptide1, saturating ATP, 100 mM NaCl): c (c, competitive)
- Ki ([1]; dead-end inhibition, varied substrate peptide1, saturating ATP, 100 mM NaCl, read-out: Kis): 10 µM
- pattern ([1]; varied substrate peptide3, saturating ATP, 100 mM NaCl): c (c, competitive)
- Ki [1, 6]: 4.4 µM
Molecule: CC(C)C[C@H](NC(=O)[C@H](C)NC(=O)CNC(=O)[C@H](CCCCN)NC(=O)[C@H](CCCNC(=N)N)NC(=O)[C@H](C)NC(=O)[C@@H](N)Cc1ccccc1)C(=O)N[C@@H](CCCNC(=N)N)C(=O)N[C@@H](CCC(N)=O)C(=O)O [peptide5] (H-FARKGALRQ-OH; N-terminus and C-terminus assumed)

- Ki ([1]; varied substrate ATP, peptide3 held at 0.5 mM, 100 mM NaCl, read-out: Kii): 1600 µM
- Ki ([1]; varied substrate peptide3, ATP held at 0.1 mM, 100 mM NaCl, read-out: Kii): 2000 µM
- Ki ([1]; varied substrate peptide3, saturating ATP, 100 mM NaCl, read-out: Kii): 1200 µM
- Ki [1, 6]: 1700 µM
Molecule: CC(C)C[C@H](NC(=O)[C@H](COP(=O)(O)O)NC(=O)CNC(=O)[C@H](CCCCN)NC(=O)[C@H](CCCNC(=N)N)NC(=O)[C@H](C)NC(=O)[C@@H](N)Cc1ccccc1)C(=O)N[C@@H](CCCNC(=N)N)C(=O)N[C@@H](CCC(N)=O)C(=O)O [phosphopeptide1] (H-FARKG[pS]LRQ-OH)

- inhibition pattern in words ([1]; dead-end inhibition against ATP): competitive inhibitor
- inhibition pattern in words [1, 4]: no observed inhibition
- pattern [1, 5]: c (c, competitive)
- Ki ([1]; dead-end inhibition, varied substrate ATP, 100 mM NaCl, read-out: Kis): 228 µM
Molecule: Nc1ncnc2c1ncn2[C@@H]1O[C@H](COP(=O)(O)OP(=O)(O)NP(=O)(O)O)[C@@H](O)[C@H]1O [AMP-PNP]

- appKm ATP ([1]; 0 mM NaCl, 0.2 mM peptide1): 25 ± 5 µM
- kcat ([1]; 100 mM NaCl, fit to equation (1)): 22 ± 1 s⁻¹
- kcat ([1]; 250 mM NaCl, fit to equation (1)): 24 ± 1 s⁻¹
- ATP hydrolysis slower in absence of peptide substrate than when peptide is present ([1]; no peptide vs peptide present): 110 times
- kcat ([1]; varied ATP, peptide1 present): 18 s⁻¹
Molecule: Nc1ncnc2c1ncn2[C@@H]1O[C@H](COP(=O)(O)OP(=O)(O)OP(=O)(O)O)[C@@H](O)[C@H]1O [ATP, adenosine triphosphate]

- substrate inhibition [1]: observed
- Ki [1, 7]: 306 ± 57 µM
- appKm [1, 8]: 4.3 ± 0.8 µM
- appKm ([1]; varied peptide substrate, saturating ATP, listed as peptide 2): 4.3 µM
Molecule: CC(C)C[C@H](NC(=O)[C@H](CO)NC(=O)CNC(=O)[C@H](CCCCN)NC(=O)[C@H](CCCNC(=N)N)NC(=O)[C@H](C)NC(=O)[C@H](Cc1ccccc1)NC(=O)[C@@H](N)CCCNC(=N)N)C(=O)N[C@@H](CCCNC(=N)N)C(=O)N[C@@H](CCC(N)=O)C(=O)N[C@@H](CCCCN)C(=O)N[C@@H](CC(N)=O)C(=O)N[C@H](C(=O)O)C(C)C [peptide2] (H-RFARKGSLRQKNV-OH; N-terminus and C-terminus assumed)

Molecule: LKRSLSEM [peptide3, substrate derived from the phosphorylation site in serum response factor]
- stickiness of substrate [2]: not sticky
- substrate inhibition [1]: not observed
- appKm [1, 8]: 420 ± 21 µM
- kcat [1, 8]: 21 ± 1 s⁻¹
- appKm ([1]; varied peptide substrate, saturating ATP, listed as Peptide 3): 420 µM

- inhibition pattern in words ([3]; against peptide 1 at non-saturating ATP (0.1 mM)): non-competitive pattern
- inhibition pattern in words ([3]; against peptide 1 at saturating ATP): no inhibition observed
- pattern ([3]; varied substrate ATP, saturating peptide 1, 100 mM NaCl): c (c, competitive)
- Ki ([3]; varied substrate ATP, saturating peptide 1, 100 mM NaCl, read-out: Kis): 291 µM
- pattern ([3]; varied substrate peptide1, ATP held at 0.1 mM, 100 mM NaCl): nc (nc, noncompetitive)
- Ki ([3]; varied substrate peptide1, ATP held at 0.1 mM, 100 mM NaCl, read-out: Kii): 200 µM
- Ki ([3]; varied substrate peptide1, ATP held at 0.1 mM, 100 mM NaCl, read-out: Kis): 494 µM
Molecule: Nc1ncnc2c1ncn2[C@@H]1O[C@H](COP(=O)(O)OP(=O)(O)O)[C@@H](O)[C@H]1O [ADP]
- inhibition pattern in words ([3]; against ATP at saturating peptide 1): competitive inhibitor; also recorded: competitive pattern

- substrate inhibition [1]: not observed
- appKm [1, 8]: 240 ± 16 µM
- kcat [1, 8]: 14 ± 1 s⁻¹
- appKm ([1]; varied peptide substrate, saturating ATP, listed as peptide 4): 240 µM
Molecule: RTPKLARQASIELPSM [peptide4, substrate derived from the phosphorylation site in lymphocyte-specific protein-1]

- Ki ([1]; 0 mM NaCl, read-out: substrate inhibition): 129 µM
- Ki ([1]; 50 mM NaCl, substrate inhibition, read-out: Ki peptide1): 201 ± 85 µM
- Ki ([1]; 100 mM NaCl, substrate inhibition, read-out: Ki peptide1): > 2000 µM
- Ki [1, 7]: > 2000 µM
Molecule: CC(C)C[C@H](NC(=O)[C@H](CO)NC(=O)CNC(=O)[C@H](CCCCN)NC(=O)[C@H](CCCNC(=N)N)NC(=O)[C@H](C)NC(=O)[C@@H](N)Cc1ccccc1)C(=O)N[C@@H](CCCNC(=N)N)C(=O)N[C@@H](CCC(N)=O)C(=O)O [peptide1] (H-FARKGSLRQ-OH)

- ratio ATP/ATPγS of appKm ([3]; 100 mM NaCl): 2.1
- ratio ATP/ATPγS of rate (thio effect) ([3]; 100 mM NaCl): 112
- appKm ([3]; 100 mM NaCl): 120 ± 9 µM
- ratio ATP/ATPγS of appKm ([3]; 250 mM NaCl): 1.8
- ratio ATP/ATPγS of rate (thio effect) ([3]; 250 mM NaCl): 146
- appKm ([3]; 250 mM NaCl): 130 ± 5 µM
Molecule: Nc1ncnc2c1ncn2[C@@H]1O[C@H](COP(=O)(O)OP(=O)(O)OP(O)(O)=S)[C@@H](O)[C@H]1O [ATPγS]
- rate ([3]; 100 mM NaCl): 1.6 ± 0.1 peak area/(reaction time in minutes)([enzyme] nM)
- rate ([3]; 250 mM NaCl): 1.3 ± 0.1 peak area/(reaction time in minutes)([enzyme] nM)

From patent publication US20050164323A1, “Methods of treating asthma” (Wyeth, priority 2003, published 2005)
